Assay results published in BindingDB's records for doi:10.7270/Q2CN728N (Nmmlsc, 2008).

molecular target: T1, Bcl-2-related protein A1 (Homo sapiens, UniProt Q16548); experiment: Bfl-1/Bim complex disruptors – biochemical, multiplexed, bead-based flow cytometry, dose response (AID 1320); conditions: inactive by the depositor's call; pH 7.4; 4 °C
T1 sequence (Q16548 whole entry): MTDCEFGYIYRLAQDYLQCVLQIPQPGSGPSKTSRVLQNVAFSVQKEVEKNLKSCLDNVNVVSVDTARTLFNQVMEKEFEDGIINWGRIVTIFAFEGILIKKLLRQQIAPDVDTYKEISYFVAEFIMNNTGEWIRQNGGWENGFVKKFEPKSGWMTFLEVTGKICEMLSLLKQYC

| EC50 [µM] | Compound |
| --- | --- |
| 8.07 | O=C(Nc1nnc(COc2ccc(Cl)cc2)s1)c1ccco1 [N-[5-[(4-chloranylphenoxy)methyl]-1,3,4-thiadiazol-2-yl]furan-2-carboxamide] |
| 4.63 | Cc1cccc(OCC(=O)NCC(=O)NN=Cc2cc(Br)ccc2OCc2ccccc2)c1 [N-[(5-bromanyl-2-phenylmethoxy-phenyl)methylideneamino]-2-[2-(3-methylphenoxy)ethanoylamino]ethanamide] |
| 26.5 | CC(C)C(=O)NC(c1ccccc1)c1cc([N+](=O)[O-])c2cccnc2c1O (stereo unspecified) [N-[(8-hydroxy-5-nitro-7-quinolinyl)-phenylmethyl]-2-methylpropanamide] |
| 4.36 | Cc1onc(-c2ccccc2)c1C(=O)Nc1nnc(COc2ccc(Cl)cc2)s1 [N-{5-[(4-chlorophenoxy)methyl]-1,3,4-thiadiazol-2-yl}-5-methyl-3-phenyl-4-isoxazolecarboxamide] |
| 22.7 | CSc1nnc2c3cc(C)ccc3n(Cc3ccccc3)c2n1 [SMR000046397] |
| 57.3 | Nc1c(C(=O)NCc2ccco2)sc2nc3c(cc12)C(=O)CCC3 [SMR000072940] |
| 0.85 | CN(C)c1ccc(Nc2nc(-c3cccnc3)cs2)cc1 [SMR000104797] |
| 15 | CNc1ccc(Br)cc(C(=O)/C=C/c2cc(OC)ccc2OC)c1=O [SMR000115626] |
| 3.9 | O=C(Nc1ccc2nc(-c3ccco3)c(-c3ccco3)nc2c1)NC1CC1 [SMR000118524] |
| 3.18 | O=C(NCCO)c1ccc2nc(-c3ccco3)c(-c3ccco3)nc2c1 [SMR000121771] |
| 67.5 | N#Cc1ccc(/N=c2/ssnc2Cl)cc1 [SMR000130044] |
| 3.05 | COc1ccc(OC)c(-n2c(S)nnc2-c2ccc(C)cc2)c1 [SMR000155418] |
| 15 | CNc1ccc(Br)cc(C(=O)/C=C/c2ccc(OC)cc2)c1=O [SMR000229850] |
| 12.2 | CCN(CC)c1ccc(NC(=O)c2ccccc2F)cc1S(=O)(=O)Nc1ccccc1OC [SMR000241522] |
| 5.04 | COc1ccccc1-n1c(-c2cc(-c3ccc(F)cc3)[nH]n2)n[nH]c1=S [SMR000293072] |

Second part, the compound before the results:

| Compound | EC50 [µM] |
| --- | --- |
| Nc1ccccc1/N=c1/ssnc1Cl [N-[(5Z)-4-chloro-5H-1,2,3-dithiazol-5-ylidene]benzene-1,2-diamine] | 4.72 |
| Cc1ccc(-c2cc(-c3ccc4c(c3)OCO4)c(C#N)c(N)n2)o1 [SMR000001529] | 1.88 |
| NC(=O)c1c(N)sc2c1CCCCC2 [SMR000066289] | 3.02 |
| CNC(=O)c1c(N)sc2c1CCCCC2 [SMR000111700] | 4.09 |
| Nc1ccc(C2=Nc3cccc4cccc(c34)N2)cc1 [SMR000175908] | 16.1 |
| S=c1[nH]cc(-c2ccccc2)n1-c1ccccc1 [SMR000196363] | 1.92 |
| CCC(=O)OCCNc1cc(Sc2nccn2C)c2nonc2c1[N+](=O)[O-] [SMR000207033] | 26.8 |
| CCN1C(=O)/C(=C\C=C2/C=CC=CN2CC)SC1=S [SMR000225150] | 4.01 |
| O=C1c2ccccc2-c2onc3ccc(N4CCCC4)c1c23 [SMR000279741] | 24.8 |
| COc1cc(OC)c([N+](=O)[O-])cc1[CH+][N-]NC(=O)c1ccncc1 [SMR000306621] | 42.3 |
| O=c1c2c(-c3ccccc3)csc2nc2c3ccccc3c(NCCN3CCOCC3)nn12 [SMR000352519] | 30.3 |

same assay, conditions: pH 7.4; 4 °C

| EC50 [µM] | Compound |
| --- | --- |
| 1.41 | COc1ccccc1NC1=C(NC(C)=O)C(=O)c2ccccc2C1=O [N-[3-(2-methoxyanilino)-1,4-dioxonaphthalen-2-yl]acetamide] |
| 6.59 | O=C(NC1=C(NC2CCS(=O)(=O)C2)C(=O)c2ccccc2C1=O)c1ccccc1 (stereo unspecified) [N-[3-[(1,1-dioxo-3-thiolanyl)amino]-1,4-dioxo-2-naphthalenyl]benzamide] |
| 9.69 | Cc1cccc(C(=O)/N=c2\c(C#N)cc3c(=O)n4cccc(C)c4nc3n2Cc2ccco2)c1 [N-[3-cyano-1-(furan-2-ylmethyl)-10-methyl-5-oxodipyrido[3,4-c:1',2'-f]pyrimidin-2-ylidene]-3-methylbenzamide] |
| 2.87 | CC(C)(C)NC(=O)COc1ccc(CNc2ccc3[nH]c(O)nc3c2)cc1 [N-tert-butyl-2-[4-[[(2-oxidanylidene-1,3-dihydrobenzimidazol-5-yl)amino]methyl]phenoxy]ethanamide] |
| 1.34 | Cc1cc2nn(-c3cccc4ccccc34)nc2cc1N [SMR000076237] |
| 0.08 | CCC(=O)OCCNc1cc(Sc2nc3ccccc3s2)c2nonc2c1[N+](=O)[O-] [SMR000131460] |
| 5.04 | CCOC(=O)C1=C(Cc2ccc(OC)cc2)C(=O)c2ccccc2C1=O [SMR000136995] |
| 2.96 | O=C(Nc1cccc(C(F)(F)F)c1)c1ccc2nc(-c3ccco3)c(-c3ccco3)nc2c1 [SMR000142217] |
| 1.12 | COC(=O)c1c(C(=O)OC)c2cccc3cc(-c4ccccc4)c4ccc1c4n32 [SMR000161417] |
| 3.33 | CCOC(=O)CSC1=NC(=O)/C(=C\c2ccc(OC(C)=O)cc2)S1 [SMR000180755] |
| 31.7 | CNCc1ccccc1Sc1ccc(O)c(O)c1 [SMR000230497] |
| 1.12 | Oc1ccc(NCc2ccccc2OCc2ccccc2)cc1 [SMR000231540] |
| 0.87 | Nc1c(C(=O)NCC2CCCO2)sc2nc3c(c(-c4ccco4)c12)CC/C3=C\c1ccco1 (stereo unspecified) [SMR000259502] |
| 1.09 | Nc1c(C(=O)NC2CC2)sc2nc3c(c(-c4ccco4)c12)CC/C3=C/c1ccco1 [SMR000259554] |
| 6.78 | CC(=NNC(=O)c1cc(O)c(O)c(O)c1)c1ccc([N+](=O)[O-])cc1 [SMR000312589] |
| 41.1 | CCN1/C(=C/C(C)=C/c2sc3ccccc3[n+]2CC)Sc2ccccc21 [SMR000354813] |

More lines, now with the values behind:

| Compound | EC50 [µM] |
| --- | --- |
| CC(=O)NC1=C(NC2CCS(=O)(=O)C2)C(=O)c2ccccc2C1=O (stereo unspecified) [N-[3-[(1,1-dioxothiolan-3-yl)amino]-1,4-dioxonaphthalen-2-yl]acetamide] | 1.55 |
| COc1cc(CNc2ccc(N3CCCC3)cc2)cc(Cl)c1OC [N-[(3-chloranyl-4,5-dimethoxy-phenyl)methyl]-4-pyrrolidin-1-yl-aniline] | 5.3 |
| CCC(=O)N(CC)C1C(=O)C(=O)c2ccccc2C1=O (stereo unspecified) [N-ethyl-N-(1-hydroxy-3,4-dioxo-2-naphthalenyl)propanamide] | 0.08 |
| COc1cc(/N=c2/ssnc2Cl)cc(OC)c1OC [SMR000025034] | 3.63 |
| COc1cc(/N=c2/ssnc2Cl)c(OC)cc1Cl [SMR000130043] | 6.53 |
| O=c1[nH]c2ccc(N=Cc3c(O)ccc4cc(Br)ccc34)cc2[nH]1 [SMR000171789] | 4.46 |
| C#CCn1cc(C=C2C(=O)c3ccccc3C2=O)c2ccccc21 [SMR000196125] | 9.57 |
| CCC(=O)OCCNc1cc(Sc2nc3ccccc3[nH]2)c2nonc2c1[N+](=O)[O-] [SMR000207032] | 1.63 |
| Cc1ccc(-c2nc(N3CCOCC3)s[n+]2-c2ccccc2)cc1 [SMR000225370] | 0.02 |
| CN=c1scc(-c2cccs2)n1N=Cc1ccc(O)c(O)c1O [SMR000242177] | 5.71 |
| Cc1nc2scc(-c3ccccc3)c2c(=O)n1N=C1C=CC(=O)C=C1 [SMR000285999] | 0.56 |
| C=C[S+]([O-])c1sc(Cl)c(N2CCOCC2)c1[N+](=O)[O-] (stereo unspecified) [SMR000293370] | 0.85 |
| CC1CC(=Cc2cccc(F)c2)C2=NC(=S)NC(c3cccc(F)c3)C2C1 (stereo unspecified) [SMR000306148] | 15.2 |
| O=C(O)c1ccc(NC2=CC(=NS(=O)(=O)c3ccccc3)c3ccccc3C2=O)cc1 [SMR000313157] | 9.21 |
